Source: US20250346606A1, “CAMPTOTHECIN COMPOUND, PREPARATION METHOD THEREFOR, AND APPLICATION THEREOF” (SICHUAN KELUN-BIOTECH BIOPHARMACEUTICAL CO., LTD., priority 2021, published 2025)
Like-named read-outs stand apart in the source and are kept apart here.

Columns and labels:
MDA-MB-453 cells = experiment: Inhibitory effect of compounds on MDA-MB-453 cell proliferation; assay type: cell-based; conditions: MDA-MB-453 human breast cancer cells, 72 h incubation, Cell Counting-Lite 2.0
Experimental: (1) Cell plating: First, tumor cells MDA-MB-453 were cultured in corresponding medium, then digested with trypsin, centrifuged, resuspended, and counted, and the cells were adjusted to an appropriate concentration for plating.
(§1) Co-incubation of the compound of the present disclosure and tumor cells: after the cells adhered to the wall, the medium was removed, and the diluted bioactive molecule (the compound of the present disclosure) was added to the wells of the above plate, and incubated for 72 h.
(§2) In vitro cell viability detection: After the incubation, 50 μL of Cell Counting-Lite™ 2.0 reagent (Vazyme/Novazyme) was added to each well, shaken and mixed well in the dark, reacted for 10 minutes, and then the detection was carried out with a microplate reader (manufacturer: BMG, Model: PHERAStar-FS) for reading. The background RLU was obtained by using cell-free medium (with Cell Counting-Lite™), and the vehicle RLU was obtained by using cell-containing medium (with Cell Counting-Lite™). Cell inhibition rate=1−(sample RLU−background RLU)/(solvent RLU−background RLU)×100%. According to the four-parameter model fitting curve, the half maximal inhibitory concentration (IC50) of the compound was calculated, and the detection results were shown in Table 22.

NCI-H358 cells = experiment: Inhibitory effect of compounds on NCI-H358 cell proliferation; assay type: cell-based, Human
Experimental: (1) Cell plating: First, tumor cells NCI-H358 were cultured in corresponding medium, then digested with trypsin, centrifuged, resuspended, and counted, and the cells were adjusted to an appropriate concentration for plating.
as §1
as §2, with “10.” for “22.”

HCC1806 cells = experiment: Inhibitory effect of compounds on HCC1806 cell proliferation; assay type: cell-based, Human
Experimental: (1) Cell plating: First, tumor cells HCC1806 were cultured in corresponding medium, then digested with trypsin, centrifuged, resuspended, and counted, and the cells were adjusted to an appropriate concentration for plating.
as §1
as §2, with “6.” for “22.”

NCI-N87 cells = experiment: Inhibitory effect of compounds on NCI-N87 cell proliferation; assay type: cell-based, Human
Experimental: (1) Cell plating: First, tumor cells NCI-N87 were cultured in corresponding medium, then digested with trypsin, centrifuged, resuspended, and counted, and the cells were adjusted to an appropriate concentration for plating.
as §1
as §2, with “12.” for “22.”

HT29 cells = experiment: Inhibitory effect of compounds on HT29 cell proliferation; assay type: cell-based, Human; conditions: read-out: IC50, inhibitory activity on HT29 cell proliferation
Experimental: (1) Cell plating: First, tumor cells HT29 were cultured in corresponding medium, then digested with trypsin, centrifuged, resuspended, and counted, and the cells were adjusted to an appropriate concentration for plating.
as §1
as §2, with “2.” for “22.”

[1] = read-out: IC50, inhibitory activity on HCC1806 cell proliferation, HCC1806 human breast squamous carcinoma cells, 72 h incubation, Cell Counting-Lite 2.0
[2] = read-out: IC50, inhibitory activity on NCI-N87 cell proliferation, NCI-N87 human gastric cancer cells, 72 h incubation, Cell Counting-Lite 2.0
[3] = Homo sapiens, NCI-H358, 72 h, read-out: IC50, inhibitory activity on NCI-H358 cell proliferation, NCI-H358 human non-small cell lung cancer cells, 72 h incubation, Cell Counting-Lite 2.0
[4] = Homo sapiens, HCC1806, 72 h, read-out: IC50, inhibitory activity on HCC1806 cell proliferation, HCC1806 human breast squamous carcinoma cells, 72 h incubation, Cell Counting-Lite 2.0
[5] = Homo sapiens, NCI-N87, 72 h, read-out: IC50, inhibitory activity on NCI-N87 cell proliferation, NCI-N87 human gastric cancer cells, 72 h incubation, Cell Counting-Lite 2.0
[6] = NCI-H358 human non-small cell lung cancer cells, 72 h incubation, Cell Counting-Lite 2.0, read-out: IC50, inhibitory activity on NCI-H358 cell proliferation
[7] = HCC1806 human breast squamous carcinoma cells, 72 h incubation, Cell Counting-Lite 2.0, read-out: IC50, inhibitory activity on HCC1806 cell proliferation
[8] = NCI-N87 human gastric cancer cells, 72 h incubation, Cell Counting-Lite 2.0, read-out: IC50, inhibitory activity on NCI-N87 cell proliferation

**Q.** For `CC[C@@]1(O)C(=O)OCc2c1cc1n(c2=O)Cc2c-1nc1cc(F)c(Cl)c3c1c2C(NC(=O)C(O)C1CC1)CC3` (single isomer, unassigned) [Example 16 (3-12-B)], which IC50 (MDA-MB-453 cells) is on record?
**A.** 4.32 nM

**Q.** And the IC50 (NCI-H358 cells; read-out: IC50, inhibitory activity on NCI-H358 cell proliferation, NCI-H358 human non-small cell lung cancer cells, 72 h incubation, Cell Counting-Lite 2.0)?
**A.** 19.8 nM

**Q.** And the IC50 (HCC1806 cells; [1])?
**A.** 1.76 nM

**Q.** And the IC50 (NCI-N87 cells; [2])?
**A.** 3.45 nM

**Q.** Which IC50 (MDA-MB-453 cells; Homo sapiens, MDA-MB-453, 72 h) does the source give for `CC[C@@]1(O)C(=O)OCc2c1cc1n(c2=O)Cc2c-1nc1cc(F)c(Cl)c3c1c2[C@H](NC[C@H](C)O)CC3` (single isomer, unassigned) [Example 17 (3-7-B)] here?
**A.** 4.87 nM

**Q.** What about the IC50 (NCI-H358 cells; [3]) of the same compound?
**A.** 22.2 nM

**Q.** What about the IC50 (HCC1806 cells; [4]) of the same compound?
**A.** 1.94 nM

**Q.** What about the IC50 (NCI-N87 cells; [5]) of the same compound?
**A.** 4.54 nM

**Q.** How did the IC50 (HCC1806 cells; [4]) turn out when `CC[C@@]1(O)C(=O)OCc2c1cc1n(c2=O)Cc2c-1nc1cc(F)c(Cl)c3c1c2[C@H](NC[C@@H](C)O)CC3` (single isomer, unassigned) [Example 25 (3-26-B)] was run?
**A.** 4.93 nM

**Q.** And the IC50 (NCI-N87 cells; [5])?
**A.** 25.3 nM

**Q.** For `CC[C@@]1(O)C(=O)OCc2c1cc1n(c2=O)Cc2c-1nc1cc(F)c(Cl)c3c1c2C(NC(=O)C(O)C1CC1)CC3` (single isomer, unassigned) [Example 16 (3-12-A)], which IC50 (MDA-MB-453 cells) is on record?
**A.** 0.47 nM

**Q.** And the IC50 (NCI-H358 cells; [3])?
**A.** 15.4 nM

**Q.** What about the IC50 (HCC1806 cells; [1]) of the same compound?
**A.** 0.16 nM

**Q.** And the IC50 (NCI-N87 cells; [2])?
**A.** 0.44 nM

**Q.** Which IC50 (NCI-H358 cells; [6]) does the source give for `CC[C@@]1(O)C(=O)OCc2c1cc1n(c2=O)Cc2c-1nc1cc(Cl)c(C)c3c1c2[C@H](NC[C@@H](C)O)CC3` [Example 24 (2-27-B), (2R)—N-((1R,9S)-5-chloro-9-ethyl-9-hydroxy-4-methyl-10,13-dioxo-2,3,9,10,13,15-hexahydro-1H,12H-benzo[de]pyrano[3′,4:6,7]indolizino[1,2-b]quinolin-1-yl)-2-hydroxypropylamine] here?
**A.** 69.1 nM

**Q.** What about the IC50 (HCC1806 cells; [7]) of the same compound?
**A.** 3.93 nM

**Q.** And the IC50 (NCI-N87 cells; [8])?
**A.** 14.7 nM

**Q.** For `CC[C@@]1(O)C(=O)OCc2c1cc1n(c2=O)Cc2c-1nc1cc(Cl)c(C)c3c1c2[C@@H](NC[C@@H](C)O)CC3` [Example 24 (2-27-A), (2R)—N-((1S,9S)-5-Chloro-9-ethyl-9-hydroxy-4-methyl-10,13-dioxo-2,3,9,10,13,15-hexahydro-1H,12H-benzo[de]pyrano[3′,4:6,7]indolizino[1,2-b]quinolin-1-yl)-2-hydroxypropylamine], which IC50 (MDA-MB-453 cells) is on record?
**A.** 11.8 nM

**Q.** And the IC50 (NCI-H358 cells; [6])?
**A.** 56.5 nM

**Q.** What about the IC50 (HCC1806 cells; [7]) of the same compound?
**A.** 4.55 nM

**Q.** What about the IC50 (NCI-N87 cells; [8]) of the same compound?
**A.** 8.32 nM

**Q.** `CC[C@@]1(O)C(=O)OCc2c1cc1n(c2=O)Cc2c-1nc1cc(Cl)c(C)c3c1c2[C@H](NC(=O)[C@H](O)C1CC1)CC3` [Example 5 (2-12-D), (2R)—N-((1R,9S)-5-chloro-9-ethyl-9-hydroxy-4-methyl-10,13-dioxo-2,3,9,10,13,15-hexahydro-1H,12H-benzo[de]pyrano[3′,4′:6,7]indolizino[1,2-b]quinolin-1-yl)-2-cyclopropyl-2-hydroxyacetamide] was tested. Which IC50 (HT29 cells; Homo sapiens, HT-29, 72 h) did it give?
**A.** 3.29 nM

**Q.** What does the source list for `CC[C@@]1(O)C(=O)OCc2c1cc1n(c2=O)Cc2c-1nc1cc(F)c(Cl)c3c1c2[C@@H](NC[C@H](C)O)CC3` (single isomer, unassigned) [Example 17 (3-7-A)]?
**A.** IC50 (MDA-MB-453 cells; Homo sapiens, MDA-MB-453, 72 h): 6.23 nM; IC50 (NCI-H358 cells; [3]): 49.4 nM; IC50 (NCI-N87 cells; [5]): 5.32 nM

**Q.** With `CC[C@@]1(O)C(=O)OCc2c1cc1n(c2=O)Cc2c-1nc1cc(F)c(Cl)c3c1c2[C@@H](NC[C@@H](C)O)CC3` (single isomer, unassigned) [Example 25 (3-26-A)] as the compound, how does the IC50 (MDA-MB-453 cells; Homo sapiens, MDA-MB-453, 72 h) read?
**A.** 3.95 nM

**Q.** What about the IC50 (NCI-H358 cells; [3]) of the same compound?
**A.** 31.6 nM

**Q.** What about the IC50 (HCC1806 cells; [4]) of the same compound?
**A.** 1.27 nM

**Q.** And the IC50 (NCI-N87 cells; [5])?
**A.** 1.23 nM

**Q.** `CC[C@@]1(O)C(=O)OCc2c1cc1n(c2=O)Cc2c-1nc1cc(Cl)c(C)c3c1c2[C@H](NCC(C)(C)O)CC3` [Example 6 (2-17-B), N-((1R,9S)-5-chloro-9-ethyl-9-hydroxy-4-methyl-10,13-dioxo-2,3,9,10,13,15-hexahydro-1H, 12H-benzo[de]pyrano[3′,4′:6,7]indolizino[1,2-b]quinolin-1-yl)-2-hydroxy-2-methylpropylamine] was tested. Which IC50 (HT29 cells; Homo sapiens, HT-29, 72 h) did it give?
**A.** 1.59 nM

**Q.** `CC[C@@]1(O)C(=O)OCc2c1cc1n(c2=O)Cc2c-1nc1cc(Cl)c(C)c3c1c2[C@@H](NCC(C)(C)O)CC3` [Example 6 (2-17-A), N-((1S,9S)-5-chloro-9-ethyl-9-hydroxy-4-methyl-10,13-dioxo-2,3,9,10,13,15-hexahydro-1H,12H-benzo[de]pyrano[3′,4′:6,7]indolizino[1,2-b]quinolin-1-yl)-2-hydroxy-2-methylpropylamine] was tested. Which IC50 (HT29 cells; Homo sapiens, HT-29, 72 h) did it give?
**A.** 1.24 nM

**Q.** Which IC50 (HT29 cells; Homo sapiens, HT-29, 72 h) does the source give for `CC[C@@]1(O)C(=O)OCc2c1cc1n(c2=O)Cc2c-1nc1cc(F)c(C)c3c1c2[C@@](C)(NC(=O)C1(O)CC1)CC3` (single isomer, unassigned) [Example 14 (5-16-A)] here?
**A.** 3.87 nM

**Q.** What does the source list for `CC[C@@]1(O)C(=O)OCc2c1cc1n(c2=O)Cc2c-1nc1cc(F)c(Cl)c3c1c2[C@H](N)CC3` (single isomer, unassigned) [Example 8 (3-1-B)]?
**A.** IC50 (HT29 cells; Homo sapiens, HT-29, 72 h): 0.71 nM; IC50 (NCI-N87 cells; [5]): 1.34 nM

**Q.** Which IC50 (HT29 cells; HT-29, HT29 human colon cancer cells, 72 h incubation, Cell Counting-Lite 2.0) does the source give for `CC[C@@]1(O)C(=O)OCc2c1cc1n(c2=O)Cc2c-1nc1cc(F)c(C)cc1c2CCN(C(=O)CO)C(C)C` [Example 10 (4-12), (S)—N-(2-(4-ethyl-8-fluoro-4-hydroxy-9-methyl-3,14-dioxo-3,4,12,14-tetrahydro-1H-pyrano[3′,4′:6,7]indolizino[1,2-b]quinolin-11-yl)ethyl)-2-hydroxy-N-isopropylacetamide] here?
**A.** 4.79 nM

**Q.** Which IC50 (HT29 cells; Homo sapiens, HT-29, 72 h) does the source give for `CC[C@@]1(O)C(=O)OCc2c1cc1n(c2=O)Cc2c-1nc1cc(F)c(Cl)c3c1c2[C@@H](N)CC3` (single isomer, unassigned) [Example 8 (3-1-A)] here?
**A.** 0.16 nM

**Q.** And the IC50 (NCI-N87 cells; [5])?
**A.** 0.37 nM

**Q.** For `CC[C@@]1(O)C(=O)OCc2c1cc1n(c2=O)Cc2c-1nc1cc(Cl)c(C)c3c1c2[C@H](NC(=O)CO)CC3` [Example 3 (2-2-B), N-((1R,9S)-5-chloro-9-ethyl-9-hydroxy-4-methyl-10,13-dioxo-2,3,9,10,13,15-hexahydro-1H,12H-benzo[de]pyrano[3′,4′:6,7]indolizino[1,2-b]quinolin-1-yl)-2-hydroxyacetamide], which IC50 (HT29 cells; Homo sapiens, HT-29, 72 h) is on record?
**A.** 7.52 nM
